Assay: Behaviour of the aqueous solution of the present compound
Type: physicochemical
Method: When 2-amino-2-[2-(4-octylphenyl)ethyl]propane-1,3-diol or a pharmaceutical acceptable acid addition salt (particularly hydrochloride) is made an aqueous solution, the solution is observed foaming and shown hemolysis and local irritation at 0.01-20% by weight. When the present compound is made the aqueous solution at a higher concentration than 0.1% by weight, the present compound is dissolved by micellization. On the other hand, in the aqueous solution at a lower concentration than 0.05% by weight, the present compound is dissolved as a solution without micellization. […] The present invention characterizes that, by adding a cyclodextrin to the said aqueous solution, the problems such as foaming, hemolysis and local irritation, as well as prevention of crystalline deposits based on micellization, are settled at the same time.

**Q.** For `CCCCCCCCc1ccc(CCC(N)(CO)CO)cc1.Cl` [present compound, 2-amino-2-[2-(4-octylphenyl)ethyl]propane-1,3-diol hydrochloride], which “concentration of aqueous solution at which crystalline deposits are found” value is on record?
**A.** 0.05-0.1 % by weight

**Q.** What about the “concentration of aqueous solution at which foaming, hemolysis and local irritation are shown” value of the same compound?
**A.** 0.01-20 % by weight

**Q.** And the “concentration of aqueous solution at which the compound is dissolved by micellization” value?
**A.** > 0.1 % by weight

**Q.** What about the “concentration of aqueous solution at which the compound is dissolved without micellization” value of the same compound?
**A.** < 0.05 % by weight
